Reference: ChEMBL document CHEMBL4017472, “New modified 2-aminobenzimidazole nucleosides: Synthesis and evaluation of their activity against herpes simplex virus type 1” (Bioorg Med Chem Lett, 2017)

Assays:
[1] = test system: Human alphaherpesvirus 1; assay: Antiviral activity against HSV-1 L2 infected in African green monkey Vero E6 cells assessed as viral reproduction at 415 uM measured after 48 hrs post infection by gentian violet staining based plaque reduction assay (reference value: 6.91 +/- 0.05 log10PFU/ml); type: functional, Vero C1008
[2] = test system: Human alphaherpesvirus 1; assay: Antiviral activity against acyclovir and cidofovir-resistant HSV-1 L2 infected in African green monkey Vero E6 cells assessed as viral reproduction at 207 uM measured after 48 hrs post infection by gentian violet staining based plaque reduction assay (reference value: 6.52 +/- 0.11 log10PFU/ml); type: functional, Vero C1008
[3] = test system: Human alphaherpesvirus 1; assay: Antiviral activity against acyclovir and cidofovir-resistant HSV-1 L2 infected in African green monkey Vero E6 cells assessed as viral reproduction at 52 uM measured after 48 hrs post infection by gentian violet staining based plaque reduction assay (reference value: 6.52 +/- 0.11 log10PFU/ml); type: functional, Vero C1008
[4] = test system: Human alphaherpesvirus 1; assay: Antiviral activity against acyclovir-resistant HSV-1 L2 infected in African green monkey Vero E6 cells assessed as viral reproduction at 52 uM measured after 48 hrs post infection by gentian violet staining based plaque reduction assay (reference value: 5.95 +/- 0.03 log10PFU/ml); type: functional, Vero C1008
[5] = test system: Human alphaherpesvirus 1; assay: Antiviral activity against acyclovir-resistant HSV-1 L2 infected in African green monkey Vero E6 cells assessed as viral reproduction at 207 uM measured after 48 hrs post infection by gentian violet staining based plaque reduction assay (reference value: 5.95 +/- 0.03 log10PFU/ml); type: functional, Vero C1008
[6] = test system: Human alphaherpesvirus 1; assay: Antiviral activity against acyclovir and cidofovir-resistant HSV-1 L2 infected in African green monkey Vero E6 cells assessed as viral reproduction at 415 uM measured after 48 hrs post infection by gentian violet staining based plaque reduction assay (reference value: 6.52 +/- 0.11 log10PFU/ml); type: functional, Vero C1008
[7] = test system: Human alphaherpesvirus 1; assay: Antiviral activity against HSV-1 L2 infected in African green monkey Vero E6 cells assessed as inhibition of viral reproduction measured after 48 hrs post infection by gentian violet staining based plaque reduction assay; type: functional; conditions: Vero C1008
[8] = test system: Human alphaherpesvirus 1; assay: Antiviral activity against acyclovir and foscarnet-resistant HSV-1 L2 infected in African green monkey Vero E6 cells assessed as viral reproduction at 415 uM measured after 48 hrs post infection by gentian violet staining based plaque reduction assay (reference value: 5.92 +/- 0.11 log10PFU/ml); type: functional, Vero C1008
[9] = test system: Human alphaherpesvirus 1; assay: Antiviral activity against foscarnet-resistant HSV-1 F+ infected in African green monkey Vero E6 cells assessed as viral reproduction at 415 uM measured after 48 hrs post infection by gentian violet staining based plaque reduction assay (reference value: 6.6 +/- 0.1 log10PFU/ml); type: functional, Vero C1008
[10] = Selectivity index, ratio of MCC for African green monkey Vero E6 cells to IC50 for HSV-1 F+ infected in African green monkey Vero E6 cells; design: species or system Vero C1008
[11] = test system: Human alphaherpesvirus 1; assay: Antiviral activity against foscarnet-resistant HSV-1 F+ infected in African green monkey Vero E6 cells assessed as reduction in virus-induced cytopathic effect; type: functional; conditions: Human alphaherpesvirus 1, F+, Vero C1008
[12] = test system: Human alphaherpesvirus 1; assay: Antiviral activity against foscarnet-resistant HSV-1 F+ infected in African green monkey Vero E6 cells assessed as viral reproduction at 52 uM measured after 48 hrs post infection by gentian violet staining based plaque reduction assay (reference value: 6.6 +/- 0.1 log10PFU/ml); type: functional, Vero C1008

Q: What does the source list for `Nc1nc2cc(F)c(F)cc2n1[C@@H]1O[C@H](CO)[C@@H](O)[C@H]1O`?
A: Activity [1]: 4.38 log10PFU/ml; Activity [2]: 5.06 log10PFU/ml; Activity [3]: 5.71 log10PFU/ml; Activity [4]: 5.04 log10PFU/ml; Activity [5]: 4.15 log10PFU/ml; Activity [6]: 4.61 log10PFU/ml; inhibition [7]: Dose-dependent effect; Activity [8]: 4.02 log10PFU/ml; Activity [9]: 3.9 log10PFU/ml; Selectivity Index [10]: >16; IC50 [11]: 208 µM; IC95 [11]: 830 µM; Activity [12]: 5.9 log10PFU/ml
